Data as given in ChEMBL document CHEMBL1151182, “Phytochemical and larvicidal studies on Stemona curtisii: structure of a new pyrido[1,2-a]azepine Stemona alkaloid” (2004).
In brackets after ≈: the same amount, converted by molar mass.

Each compound was assayed on Anopheles minimus (assay: Larvicidal activity in Anopheles minimus HO by WHO method).
Type: functional

Q: For `CC[C@H](O)[C@@H]1CC[C@@H]2O[C@@]34CCCN1[C@@H]2[C@H]3[C@H](C)/C(=C1/OC(=O)C(C)=C1OC)O4` [STEMOCURTISINOL], which LC50 is on record?
A: 39 µg/mL (≈ 96.2 µM)

Q: How did the LC50 turn out when `COC1=C(C)C(=O)O/C1=C1\O[C@]23CCCN4[C@H]([C@@H]5C[C@H](C)C(=O)O5)[C@H](C[C@H]4[C@H]2[C@@H]1C)O3` [OXYPROTOSTEMONINE] was run?
A: 4 µg/mL (≈ 9.27 µM)

Q: For `COC1=C(C)C(=O)O/C1=C1\O[C@@]23CCCN4CCC[C@H](O2)[C@H]4[C@H]3[C@@H]1C` [STEMOCURTISINE], which LC50 is on record?
A: 18 µg/mL (≈ 51.8 µM)
